Patent US11654094B2, “Composition comprising benzoic acid amide compound and cyclodextrin solubilizing agent” (AMOREPACIFIC CORPORATION, priority 2017, dated 2023)
In brackets after ≈: the same amount, converted by molar mass. Like-named read-outs stand apart in the source and are kept apart here.

Experiments:
[1] = Amount of solubilizers needed to dissolve DBAB in water (synergy of cyclodextrin with other solubilizers); type: physicochemical; conditions: for solubility of the composition: 0.1% by weight DBAB
Excerpt: The synergistic effect of cyclodextrin as a solubilizer of the present invention in combination with other solubilizers (a second solubilizer and a third solubilizer) was investigated.

[2] = pH and solubility of HP-β-CD/DBAB compositions; type: physicochemical; conditions: HP-β-CD and DBAB mixed at a weight ratio of 1:1
Excerpt: In addition to investigation of the solubility improvement with varying pH, the solubility of the composition was investigated with varying the pH of the composition and the weight ratio of HP-β-CD and DBAB as shown in Table 3 below.

[3] = Solubility of DBAB achieved by solvents; type: physicochemical; conditions: organic solvent or mixture
melanin synthesis = conditions: background statement; verified through cell and artificial skin tests; cited from earlier work
MITF = conditions: through the cAMP-PKA-CREB signal pathway; background statement; cited from earlier work
[4] = Solubility of DBAB for each type of cyclodextrin and their 1:1 combinations (amount of CD required); type: physicochemical; conditions: single cyclodextrin or 1:1 weight ratio combination
Procedure: In order to investigate the solubility of one part by weight of DBAB for each type of cyclodextrin and the synergistic effect between cyclodextrins, the solubility of each of α-CD, γ-CD, HP-α-CD, HP-β-CD and HP-γ-CD and the solubility of their 1:1 weight ratio combinations was determined, as shown in Table 4 below.

[5] = Solubility of DBAB at various weight ratios of HP-β-CD and γ-CD, total CD 0.5%; conditions: 0.2% by weight of each of HP-β-CD and γ-CD, test method of Table 5
Procedure: In this case, 10% by weight of PEG.PPG-17.6 copolymer, 0.1% by weight of DBAB, 39.4% by weight of propanediol, 50% by weight of water and 0.5% by weight of the total CD were used.
In addition, the test method of Table 5 was carried out by using 0.2% by weight of each of HP-β-CD and γ-CD with an addition of 0.1% by weight of HP-α-CD, HP-γ-CD, α-CD or β-CD.

For `COc1cc(OC)c(C23CC4CC(CC(C4)C2)C3)cc1C(=O)NCc1ccc(O)cc1O` [DBAB, 5-adamantan-1-yl-N-(2,4-dihydroxybenzyl)-2,4-dimethoxy-benzoic acid amide], the “solubility of the composition” value ([1]; 30% by weight PEG.PPG-17.6 copolymer, 0.6% by weight HP-β-CD) was “transparently dissolved”, the “solubility of the composition” value ([1]; 50% by weight PEG.PPG-17.6 copolymer, balance water) was “transparently dissolved” and the “pH at which the composition has improved solubility” value [2] was at least 12.72. The solubility ([3]; PEG.PPG-17.6 copolymer, read-out: solubility of DBAB achieved by PEG.PPG-17.6 copolymer) was 81.3 mg/mL (≈ 186 mM), the solubility ([3]; propanediol, read-out: solubility of DBAB achieved by propanediol) was 5.92 mg/mL (≈ 13.5 mM) and the melanin synthesis (melanin synthesis) was “inhibiting melanin synthesis”. For the same compound, the “expression of MITF” value (MITF) was “reduces the expression of MITF”.

With `OC[C@H]1O[C@@H]2O[C@H]3[C@H](O)[C@@H](O)[C@@H](O[C@H]4[C@H](O)[C@@H](O)[C@@H](O[C@H]5[C@H](O)[C@@H](O)[C@@H](O[C@H]6[C@H](O)[C@@H](O)[C@@H](O[C@H]7[C@H](O)[C@@H](O)[C@@H](O[C@H]1[C@H](O)[C@H]2O)O[C@@H]7CO)O[C@@H]6CO)O[C@@H]5CO)O[C@@H]4CO)O[C@@H]3CO` [α, α-cyclodextrin] the “amount of CD required (weight ratio CD:DBAB, x:1) to transparently dissolve one part by weight of DBAB” value [4] was over 20 and the “effect on solubility of DBAB of adding 0.1% by weight of a further cyclodextrin” value [5] was “did not improve the solubility”.

With `OC[C@H]1O[C@@H]2O[C@H]3[C@H](O)[C@@H](O)[C@@H](O[C@H]4[C@H](O)[C@@H](O)[C@@H](O[C@H]5[C@H](O)[C@@H](O)[C@@H](O[C@H]6[C@H](O)[C@@H](O)[C@@H](O[C@H]7[C@H](O)[C@@H](O)[C@@H](O[C@H]8[C@H](O)[C@@H](O)[C@@H](O[C@H]1[C@H](O)[C@H]2O)O[C@@H]8CO)O[C@@H]7CO)O[C@@H]6CO)O[C@@H]5CO)O[C@@H]4CO)O[C@@H]3CO` [β, β-cyclodextrin] the “amount of CD required (weight ratio CD:DBAB, x:1) to transparently dissolve one part by weight of DBAB” value [4] was over 20 and the “effect on solubility of DBAB of adding 0.1% by weight of a further cyclodextrin” value [5] was “did not improve the solubility”.

In the case of hydroxypropyl-α-cyclodextrin [HPα], the “amount of CD required (weight ratio CD:DBAB, x:1) to transparently dissolve one part by weight of DBAB” value [4] is reported as over 20 and the “effect on solubility of DBAB of adding 0.1% by weight of a further cyclodextrin” value [5] is reported as “did not improve the solubility”.

In the case of hydroxypropyl-β-cyclodextrin [HP-β-CD], the “PEG.PPG-17.6 copolymer replaced by 0.6% of HP-β-CD” value ([1]; composition comprising DBAB) is reported as 20%, the “PEG.PPG-17.6 copolymer replaced by 0.1% by weight of HP-β-CD” value ([1]; composition with 0.1% by weight of DBAB) is reported as 20 % by weight and the “amount of CD required (weight ratio CD:DBAB, x:1) to transparently dissolve one part by weight of DBAB” value [4] is reported as 20.

For hydroxypropyl-γ-cyclodextrin [HPγ], the “amount of CD required (weight ratio CD:DBAB, x:1) to transparently dissolve one part by weight of DBAB” value [4] was over 20.
